Source: PubChem BioAssay (NCI)
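In this assay, cells in 96-well plates receive the compound at five concentrations for 48 hours. Endpoints are linearly interpolated between the surrounding concentrations. Abbreviation: GI50, concentration required for 50% inhibition of growth. Definition used: TGI = concentration required for complete inhibition of growth.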

Assays:
Experiment in all cases: NCI anticancer screen, dose series, 48 h
NCI-H226 lung = tested on: NCI-H226 lung
NCI-H460 lung = tested on: NCI-H460 lung
NCI-H522 lung = tested on: NCI-H522 lung
NCI/ADR-RES ovarian = tested on: NCI/ADR-RES ovarian
OVCAR-3 ovarian = tested on: OVCAR-3 ovarian
OVCAR-4 ovarian = tested on: OVCAR-4 ovarian
OVCAR-5 ovarian = tested on: OVCAR-5 ovarian
OVCAR-8 ovarian = tested on: OVCAR-8 ovarian
PC-3 prostate = tested on: PC-3 prostate
RXF 393 renal = tested on: RXF 393 renal
SF-268 CNS = tested on: SF-268 CNS
SF-295 CNS = tested on: SF-295 CNS
SF-539 CNS = tested on: SF-539 CNS
SK-MEL-2 melanoma = tested on: SK-MEL-2 melanoma
SK-MEL-28 melanoma = tested on: SK-MEL-28 melanoma
SK-MEL-5 melanoma = tested on: SK-MEL-5 melanoma
SK-OV-3 ovarian = tested on: SK-OV-3 ovarian
SN12C renal = tested on: SN12C renal
SNB-19 CNS = tested on: SNB-19 CNS
SNB-75 CNS = tested on: SNB-75 CNS
SR leukemia = tested on: SR leukemia
SW-620 colon = tested on: SW-620 colon
T-47D breast = tested on: T-47D breast
TK-10 renal = tested on: TK-10 renal
U251 CNS = tested on: U251 CNS
UACC-257 melanoma = tested on: UACC-257 melanoma
UACC-62 melanoma = tested on: UACC-62 melanoma
UO-31 renal = tested on: UO-31 renal

Compound Cc1cc2nc3c4cc(Cl)ccc4n(CC(=O)NCCN(C)C)c3nc2cc1C has a TGI (NCI-H226 lung) of 26.1 µM, a GI50 (NCI-H460 lung) of 1.79 µM and a TGI (NCI-H460 lung) of 3.62 µM. It also gave a GI50 (NCI-H522 lung) of 12.7 µM, a TGI (NCI-H522 lung) of 25.9 µM and a GI50 (NCI/ADR-RES ovarian) of 5.64 µM. The TGI (NCI/ADR-RES ovarian) was 18.5 µM, the GI50 (OVCAR-3 ovarian) was 14.6 µM and the TGI (OVCAR-3 ovarian) was 27.8 µM. It also gave a GI50 (OVCAR-4 ovarian) of 15.9 µM, a TGI (OVCAR-4 ovarian) of 39.2 µM and a GI50 (OVCAR-5 ovarian) of 2.04 µM. The TGI (OVCAR-5 ovarian) was 4.68 µM, the GI50 (OVCAR-8 ovarian) was 1.91 µM and the TGI (OVCAR-8 ovarian) was 3.87 µM. The GI50 (PC-3 prostate) was 11.1 µM, the TGI (PC-3 prostate) was 71.7 µM and the GI50 (RXF 393 renal) was 1.67 µM. The TGI (RXF 393 renal) was 3.42 µM, the GI50 (SF-268 CNS) was 13.9 µM and the TGI (SF-268 CNS) was 30.5 µM. For the same compound, the GI50 (SF-295 CNS) was 16.4 µM, the TGI (SF-295 CNS) was 29.9 µM and the GI50 (SF-539 CNS) was 1.74 µM. It also gave a TGI (SF-539 CNS) of 3.21 µM, a GI50 (SK-MEL-2 melanoma) of 16 µM and a TGI (SK-MEL-2 melanoma) of 29.8 µM. For the same compound, the GI50 (SK-MEL-28 melanoma) was 1.74 µM, the TGI (SK-MEL-28 melanoma) was 3.15 µM and the GI50 (SK-MEL-5 melanoma) was 1.77 µM. It also gave a TGI (SK-MEL-5 melanoma) of 3.37 µM, a GI50 (SK-OV-3 ovarian) of 14.3 µM and a TGI (SK-OV-3 ovarian) of 29.1 µM. It also gave a GI50 (SN12C renal) of 15.2 µM, a TGI (SN12C renal) of 29.4 µM and a GI50 (SNB-19 CNS) of 16.1 µM. It also gave a TGI (SNB-19 CNS) of 31.2 µM, a GI50 (SNB-75 CNS) of 13.2 µM and a TGI (SNB-75 CNS) of 26.5 µM. For the same compound, the GI50 (SR leukemia) was 2.42 µM, the TGI (SR leukemia) was 6.64 µM and the GI50 (SW-620 colon) was 1.57 µM. For the same compound, the TGI (SW-620 colon) was 3.21 µM, the GI50 (T-47D breast) was over 100 µM and the TGI (T-47D breast) was over 100 µM. The GI50 (TK-10 renal) was 19.7 µM, the TGI (TK-10 renal) was 33.9 µM and the GI50 (U251 CNS) was 1.66 µM. The TGI (U251 CNS) was 3.1 µM, the GI50 (UACC-257 melanoma) was 1.87 µM and the TGI (UACC-257 melanoma) was 3.97 µM. For the same compound, the GI50 (UACC-62 melanoma) was 2.14 µM, the TGI (UACC-62 melanoma) was 5.26 µM and the GI50 (UO-31 renal) was 1.02 µM. For the same compound, the TGI (UO-31 renal) was 2.22 µM.
